Laboratory results reported in US8603437B2, “Methods for tumor diagnosis and therapy” (President and Fellows of Harvard College, priority 2000, dated 2013).

Columns and labels:
[1] = Retention of radioactivity in forelimb after s.c. injection, and 24 hour biodistribution; format: in vivo, mice
Procedure: […] […] The animals were killed after 1 hour, 24 hours, and 48 hours, the radioactivity associated with the forelimbs was measured, and the percentage of radioactivity remaining was calculated (at the 24 hour time point, the biodistribution of radioactivity in various tissues and organs was also determined).

[2] = tested on: alkaline phosphatase (ALP)
Procedure: The animals were killed 1 hour later and the radioactivity in the forelimbs was measured.

[3] = Biodistribution in normal mice after i.v. injection; format: in vivo; conditions: for affinity / avidity for normal tissues: 1 hour and 24 hours; for injected dose remaining in the body by 24 hours: ~5 μCi/100 μl
Procedure: Mice (n=30) were injected i.v. with the radiopharmaceutical (˜5 μCi/100 μl), the animals were killed at 1 hour (n=15) and 24 hours (n=15), and the radioactivity associated with blood, tissues, and organs was determined.
The biodistribution of ^125I-labeled Compound B was also examined in various tissues in normal mice. […] However, by 24 hours (FIG. 5), all tissues and organs (with the exception of minimal activity in the thyroid) were virtually void of radioactivity (<4% of the injected dose remained in the body by 24 hours).

[4] = mouse, in vivo, iv
[5] = tested on: alkaline phosphatase (ALP); conditions: ~10 μCi/100 μl 0.1 M Tris pH 7.2, 5 units ALP; only with active enzyme, not heat-inactivated ALP
[6] = Blood clearance after i.v. injection in mice; conditions: bled over 1 hour, blood radioactivity
[7] = Chemical nature of radioactivity in blood (stability), TLC and autoradiography of blood samples; format: in vivo, mice; conditions: blood samples from first 40 min, ethanol supernatant, TLC; single spot with same Rf as 127I-labeled Compound A
Text: The plates were run in acetonitrile-water (1.5:2) and autoradiographed.

Solubility observations = format: physicochemical

Compound	fraction seeped out of the s.c. pocket by 24 hours ([1]; s.c. left forelimb, 5 μCi/5 μl saline followed by 5 μl DMSO)	radioactive content within forelimbs pre-injected with ALP ([2]; ALP 50-400 units/10 μl s.c., 20 μCi i.v. five minutes later, killed 1 hour later)	uptake in forelimbs pre-injected with heat-inactivated ALP ([2]; heat-inactivated ALP s.c., i.v. prodrug, 1 hour)	dehalogenation (thyroid activity) [3]	affinity / avidity for normal tissues [3]	injected dose remaining in the body by 24 hours [3]	blood clearance of radioactivity [4]	conversion to 125I-labeled Compound B [5]	T1/2β [6] [min]	stability in blood: chemical nature of radioactivity [7]	localization of escaped radioactivity in normal tissues ([1]; biodistribution 24 hours after s.c. injection)	change in forelimb radioactivity between 24 hours and 48 hours ([1]; s.c. forelimb)	injected activity remaining at the injection site at 24 hours ([1]; s.c. right forelimb, 5 μl DMSO solution followed by 5 μl saline) [%]	radioactivity in all tissues examined at 1 hour ([3]; 1 hour) [% ID/g]	solubility in DMSO (Solubility observations; 100 μl DMSO)	behaviour on adding water to the DMSO solution (Solubility observations; 100 μl water added to 100 μl DMSO)
N.O=c1[nH]c(-c2ccccc2OP(=O)(O)O)nc2ccc(I)cc12 [^125-I labeled Compound A, Ammonium 2-(2′-Phosphoryloxyphenyl)-6-iodo-4-(3H)-quinazolinone]	greater than 98%	increased with enzyme dose and plateaued at the highest concentrations	no increase in uptake	minimal dehalogenation	low affinity to normal tissues	< 20 % of the injected dose	rapid biphasic blood clearance	complete conversion	51.1 ± 6.8	no evidence of free iodine	–	–	–	–	–	–
O=c1[nH]c(-c2ccccc2O)nc2ccc(I)cc12 [^125-I labeled Compound B, 2-(2′-Hydroxyphenyl)-6-iodo-4-(3H)-quinazolinone]	–	–	–	–	no avidity for any tissue	< 4 % of the injected dose	–	–	–	–	does not localize in any normal tissues	no change	71±5	< 15	completely soluble	visible precipitate forms immediately
